Measurements as given in article PMC10380348 (2023).

Test system: MnG4C1 (DNA, G4) AGGGGGGGAGTTAGGGCGCACGTTAGGGGTGCTATTAGGG
Assay: ThT fluorescence light-up, 492 nm
Details: 50 mM Tris-HCl pH 7.5, room temperature, 3 µM ThT, 1 mM aptamer

binding (K+ 0-30 mM): yes
binding (Mn2+ 0-100 µM): yes
Structure (SMILES): Cc1ccc2c(c1)sc(-c1ccc(N(C)C)cc1)[n+]2C
